Experiments:
[1] = molecular target: T1, CB2R (hCB2R) (Homo sapiens, UniProt P34972, V36M); assay: inhibition of forskolin-induced cAMP, HEK-293T cells; format: cell-based; conditions: read-out: Val36^1.35Met / pEC50 (converted)
T1 construct: gene CNR2; expressed in HEK-293T cells

[2] = molecular target: T2, CB2R (hCB2R) (Homo sapiens, UniProt P34972, A282M); assay: as above; format: cell-based; conditions: read-out: Ala282^7.36Met / pEC50 (converted)
T2 construct: gene CNR2; expressed in HEK-293T cells
T2 sequence (P34972 whole entry A282M): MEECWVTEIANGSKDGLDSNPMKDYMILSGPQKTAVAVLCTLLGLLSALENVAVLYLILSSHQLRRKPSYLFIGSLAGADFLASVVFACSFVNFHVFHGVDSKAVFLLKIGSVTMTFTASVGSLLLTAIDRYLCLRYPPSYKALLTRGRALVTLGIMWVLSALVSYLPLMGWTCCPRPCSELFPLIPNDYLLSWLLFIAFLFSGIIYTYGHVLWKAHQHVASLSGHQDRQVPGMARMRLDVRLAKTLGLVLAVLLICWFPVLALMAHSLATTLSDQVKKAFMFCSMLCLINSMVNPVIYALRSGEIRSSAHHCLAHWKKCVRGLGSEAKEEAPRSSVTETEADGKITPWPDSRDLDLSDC

[3] = molecular target: T3, CB2R (hCB2R) (Homo sapiens, UniProt P34972); assay: [3H]CP-55, […] competition binding, HEK-293T membranes; conditions: read-out: CB2R Ki [μM]^[b]
T3 construct: gene CNR2; expressed in HEK-293T cells
T3 sequence (P34972 whole entry): as the sequence (P34972 whole entry A282M) above, with M282A counted along it

[4] = molecular target: T3, CB2R (hCB2R); assay: inhibition of forskolin-induced cAMP, HEK-293T cells; format: cell-based; conditions: read-out: Wild type / pEC50 (converted)
[5] = molecular target: T4, CB1R (hCB1R) (Homo sapiens, UniProt P21554); assay: [3H]CP-55, […] competition binding, HEK-293T membranes; conditions: read-out: CB1R Ki [μM]^[b]
T4 construct: gene CNR1; expressed in HEK-293T cells; membrane fractions
T4 sequence (P21554 whole entry): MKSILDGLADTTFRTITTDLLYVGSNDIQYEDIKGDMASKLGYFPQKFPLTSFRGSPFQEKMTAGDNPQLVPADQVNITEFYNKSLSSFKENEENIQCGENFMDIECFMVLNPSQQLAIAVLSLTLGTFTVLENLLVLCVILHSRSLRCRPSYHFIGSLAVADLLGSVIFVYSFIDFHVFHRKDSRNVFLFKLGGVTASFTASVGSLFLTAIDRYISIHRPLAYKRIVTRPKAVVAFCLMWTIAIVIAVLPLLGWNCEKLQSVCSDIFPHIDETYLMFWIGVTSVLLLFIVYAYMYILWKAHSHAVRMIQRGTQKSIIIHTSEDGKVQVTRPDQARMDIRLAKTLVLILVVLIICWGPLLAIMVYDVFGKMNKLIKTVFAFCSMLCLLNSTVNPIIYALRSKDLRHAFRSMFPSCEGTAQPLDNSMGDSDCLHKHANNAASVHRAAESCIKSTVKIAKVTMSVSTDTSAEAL

[6] = as above; set-up: species or system Homo sapiens; conditions: read-out: CB1R Ki [μM]^[b]

T1 sequence (P34972 whole entry V36M): as the sequence (P34972 whole entry A282M) above, with V36M, M282A counted along it

Compound	EC50 [1] [µM]	EC50 [2] [µM]	Ki [3] [µM]	EC50 [4] [µM]	Ki [5] [µM]	Ki [6] [µM]
CCCCCCC(C)(C)c1cc(OCCCCCCCCCCOc2cc(C(C)(C)CCCCCC)cc3c2-c2c(cnn2CC)C(C)(C)O3)c2c(c1)OC(C)(C)c1cnn(CC)c1-2 [compound 22, bivalent chromenopyrazole 22 (R1 = N1-Et, n = 8)]	0.02	0.0631	0.9 ± 0.2	0.0794	> 40	–
CCCCCCC(C)(C)c1cc(OCCCCCCCCCCCCCCCCOc2cc(C(C)(C)CCCCCC)cc3c2-c2c(cnn2CC)C(C)(C)O3)c2c(c1)OC(C)(C)c1cnn(CC)c1-2 [compound 28, bivalent chromenopyrazole 28 (R1 = N1-Et, n = 14)]	–	–	–	–	> 40	> 40
CCCCCCC(C)(C)c1cc(OCCCCCCCCCCCCCCOc2cc(C(C)(C)CCCCCC)cc3c2-c2nn(CC)cc2C(C)(C)O3)c2c(c1)OC(C)(C)c1cn(CC)nc1-2 [compound 27]	0.0794	0.0501	0.3 ± 0.1	0.0251	> 40	–

— article PMC7756656, “Discovery of Homobivalent Bitopic Ligands of the Cannabinoid CB2 Receptor” (Chemistry (Weinheim an Der Bergstrasse, Germany), 2020)
